pIC50: −log10 of the molar value.
Tested on: Human mast cells (CHMC)
Assay: LD Tryptase release assay in CHMC (mast cell activation induced by FcγR cross-linking)
Format: cell-based
Conditions: Homo sapiens, Mast cell, anti-IgG stimulation, activity of tryptase released upon degranulation
Procedure, shortened: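 Mast cells derived from CD38-negative progenitors were preincubated 1 h at 37 °C with compound in HEPES-buffered saline (pH 7.4, 0.1% BSA, compound diluted in buffer with 2% MeOH/1% DMSO). Cells were then stimulated 60 min with anti-human IgG (final 1 μg/mL). Released tryptase was measured on Z-Ala-Lys-Arg-AMC (30 min, room temperature, 355/460 nm) to give the IC50.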

pIC50 | SMILES
6.30 to 7.00 | CCOC[C@H]1CN(c2ccc(Nc3ncc(F)c(Nc4ccc5c(n4)NC(=O)C(C)(C)O5)n3)cn2)CCO1 [Compound 103, N4-(2,2-dimethyl-3,4-dihydro-3-oxo-2H-pyrido[3,2-b][1,4]oxazin-6-yl)-N2-[6-(((2R)-2-ethoxymethyl)morpholino)pyridin-3-yl]-5-fluoro-2,4-pyrimidinediamine]
6.30 to 7.00 | COC1CCN(c2ccc(Nc3ncc(F)c(Nc4ccc5c(n4)NC(=O)C(C)(C)O5)n3)cn2)CC1 [Compound 53, N4-(2,2-dimethyl-3,4-dihydro-3-oxo-2H-pyrido[3,2-b][1,4]oxazin-6-yl)-5-fluoro-N2-[6-(4-methoxypiperidin-1-yl)pyridin-3-yl]-2,4-pyrimidinediamine]
6.30 to 7.00 | CC1(C)Oc2ccc(Nc3nc(Nc4ccc(N5CCC6(CC5)COC6)cc4)ncc3F)nc2NC1=O [Compound 158, N4-(2,2-dimethyl-3,4-dihydro-3-oxo-2H-pyrido[3,2-b][1,4]oxazin-6-yl)-5-fluoro-N2-[4-(2-oxa-7-azaspiro[3.5]nonan-7-yl)phenyl]-2,4-pyrimidinediamine]
6.30 to 7.00 | CC1(C)Oc2ccc(Nc3nc(Nc4ccc(N5CCOCC5=O)cc4)ncc3F)nc2NC1=O [Compound 40, N4-(2,2-dimethyl-3,4-dihydro-3-oxo-2H-pyrido[3,2-b][1,4]oxazin-6-yl)-5-fluoro-N2-[4-(morpholin-2-one)phenyl]-2,4-pyrimidinediamine]
6.30 to 7.00 | CN(C[C@H]1CCCO1)c1ccc(Nc2ncc(F)c(Nc3ccc4c(n3)NC(=O)C(C)(C)O4)n2)cn1 [Compound 111]
> 7.00 | CN(c1ccc(Nc2ncc(F)c(Nc3ccc4c(n3)NC(=O)C(C)(C)O4)n2)cn1)C1CCOCC1 [Compound 143, N4-(2,2-dimethyl-3,4-dihydro-3-oxo-2H-pyrido[3,2-b][1,4]oxazin-6-yl)-5-fluoro-N2-[6-(methyl(tetrahydro-2H-pyran-4-yl)amino)pyridin-3-yl]-2,4-pyrimidinediamine]
6.30 to 7.00 | CC1(C)Oc2ccc(Nc3nc(Nc4ccc(N5CC[C@H](CO)C5)nc4)ncc3F)nc2NC1=O [Compound 71, N4-(2,2-dimethyl-3,4-dihydro-3-oxo-2H-pyrido[3,2-b][1,4]oxazin-6-yl)-5-fluoro-N2-[6-((3S)-3-(hydroxymethyl)pyrrolidin-1-yl)pyridin-3-yl]-2,4-pyrimidinediamine]
> 7.00 | C[C@@H]1CN(c2ccc(Nc3ncc(F)c(Nc4ccc5c(n4)NC(=O)CO5)n3)cc2)CCO1 [Compound 117, N4-(3,4-dihydro-3-oxo-2H-pyrido[3,2-b][1,4]oxazin-6-yl)-5-fluoro-N2-[4-((2R)-2-methylmorpholino)phenyl]-2,4-pyrimidinediamine]
4.00 to 6.00 | CC1(C)Oc2ccc(Nc3nc(Nc4cc(F)c(N5CCOCC5)c(F)c4)ncc3F)nc2NC1=O [Compound 31, N4-(2,2-dimethyl-3,4-dihydro-3-oxo-2H-pyrido[3,2-b][1,4]oxazin-6-yl)-5-fluoro-N2-[3,5-difluoro-4-morpholinophenyl]-2,4-pyrimidinediamine]
> 7.00 | CC1(C)Oc2ccc(Nc3nc(Nc4ccc(N5C[C@@H]6C[C@H]5CO6)cc4)ncc3F)nc2NC1=O [Compound 38, N4-(2,2-dimethyl-3,4-dihydro-3-oxo-2H-pyrido[3,2-b][1,4]oxazin-6-yl)-5-fluoro-N2-[4-((1S,4S)-5-oxa-2-aza-bicyclo[2.2.1]heptan-2-yl)phenyl]-2,4-pyrimidinediamine]
6.30 to 7.00 | C[C@@H]1COCCN1c1ccc(Nc2ncc(F)c(Nc3ccc4c(n3)NC(=O)CO4)n2)cc1 [Compound 82]
6.30 to 7.00 | CC1(C)CN(c2ncc(Nc3ncc(F)c(Nc4ccc5c(n4)NC(=O)CO5)n3)cc2F)CCO1 [Compound 17, N4-(3,4-dihydro-3-oxo-2H-pyrido[3,2-b][1,4]oxazin-6-yl)-5-fluoro-N2-[5-fluoro-6-(2,2-dimethylmorpholino)pyridin-3-yl]-2,4-pyrimidinediamine]
6.30 to 7.00 | CCOC[C@H]1CN(c2ccc(Nc3ncc(F)c(Nc4ccc5c(n4)NC(=O)CO5)n3)cn2)CCO1 [Compound 102, N4-(3,4-dihydro-3-oxo-2H-pyrido[3,2-b][1,4]oxazin-6-yl)-N2-[6-(((2R)-2-ethoxymethyl)morpholino)pyridin-3-yl]-5-fluoro-2,4-pyrimidinediamine]
4.00 to 6.00 | CC1(C)Oc2ccc(Nc3nc(Nc4ccc(N5CCC(F)(F)CC5)cc4)ncc3F)nc2NC1=O [Compound 29, N4-(2,2-dimethyl-3,4-dihydro-3-oxo-2H-pyrido[3,2-b][1,4]oxazin-6-yl)-5-fluoro-N2-[4-(4,4-difluoro-1-piperidinyl)phenyl]-2,4-pyrimidinediamine]
6.30 to 7.00 | CC1(C)Oc2ccc(Nc3nc(Nc4ccc(N5CCO[C@H](CCO)C5)cc4)ncc3F)nc2NC1=O (stereo in doubt) [Compound 126, N4-(2,2-dimethyl-3,4-dihydro-3-oxo-2H-pyrido[3,2-b][1,4]oxazin-6-yl)-5-fluoro-N2-[4-((2-hydroxyethyl)morpholino)phenyl]-2,4-pyrimidinediamine]
6.30 to 7.00 | COCC1CCN(c2ccc(Nc3ncc(F)c(Nc4ccc5c(n4)NC(=O)C(C)(C)O5)n3)cc2)CC1 [Compound 155, N4-(2,2-dimethyl-3,4-dihydro-3-oxo-2H-pyrido[3,2-b][1,4]oxazin-6-yl)-5-fluoro-N2-[4-(4-(methoxymethyl)piperidin-1-yl)phenyl]-2,4-pyrimidinediamine]

pIC50 | SMILES
4.00 to 6.00 | CC(C)Oc1cc(Nc2ncc(F)c(Nc3ccc4c(n3)NC(=O)C(C)(C)O4)n2)ccc1N1CCOCC1 [Compound 45, N4-(2,2-dimethyl-3,4-dihydro-3-oxo-2H-pyrido[3,2-b][1,4]oxazin-6-yl)-5-fluoro-N2-[3-(2-propoxy)-4-morpholinophenyl]-2,4-pyrimidinediamine]
6.30 to 7.00 | COCCN(C)c1ccc(Nc2ncc(F)c(Nc3ccc4c(n3)NC(=O)C(C)(C)O4)n2)cn1 [Compound 99]
> 7.00 | COC1CCN(c2ccc(Nc3ncc(F)c(Nc4ccc5c(n4)NC(=O)C(C)(C)O5)n3)cc2)CC1 [Compound 152, N4-(2,2-dimethyl-3,4-dihydro-3-oxo-2H-pyrido[3,2-b][1,4]oxazin-6-yl)-5-fluoro-N2-[4-(4-methoxypiperidin-1-yl)phenyl]-2,4-pyrimidinediamine]
6.30 to 7.00 | CC1(C)Oc2ccc(Nc3nc(Nc4ccc(N5CC[C@@H](O)C5)nc4)ncc3F)nc2NC1=O [Compound 64, N4-(2,2-dimethyl-3,4-dihydro-3-oxo-2H-pyrido[3,2-b][1,4]oxazin-6-yl)-5-fluoro-N2-[6-((3R)-3-hydroxypyrrolidin-1-yl)pyridin-3-yl]-2,4-pyrimidinediamine]
> 7.00 | CC1(C)Oc2ccc(Nc3nc(Nc4ccc(N5CCOC5=O)cc4)ncc3F)nc2NC1=O [Compound 91, N4-(2,2-dimethyl-3,4-dihydro-3-oxo-2H-pyrido[3,2-b][1,4]oxazin-6-yl)-5-fluoro-N2-[4-(2-oxooxazolidin-3-yl)phenyl]-2,4-pyrimidinediamine]
> 7.00 | Cc1cc(Nc2ncc(F)c(Nc3ccc4c(n3)NC(=O)CO4)n2)ccc1N1CCOCC1 [Compound 32]
6.00 to 6.30 | CC1(C)Oc2ccc(Nc3nc(Nc4ccc(N5CCC(C(N)=O)C5)nc4)ncc3F)nc2NC1=O (stereo not shown) [Compound 70, N4-(2,2-dimethyl-3,4-dihydro-3-oxo-2H-pyrido[3,2-b][1,4]oxazin-6-yl)-5-fluoro-N2-[6-(3-(aminocarbonyl)pyrrolidin-1-yl)pyridin-3-yl]-2,4-pyrimidinediamine]
4.00 to 6.00 | CC(C)[C@H]1COC(=O)N1c1ccc(Nc2ncc(F)c(Nc3ccc4c(n3)NC(=O)C(C)(C)O4)n2)cn1 [Compound 74, N4-(2,2-dimethyl-3,4-dihydro-3-oxo-2H-pyrido[3,2-b][1,4]oxazin-6-yl)-5-fluoro-N2-[6-((4S)-4-isopropyl-2-oxooxazolidin-3-yl)pyridin-3-yl]-2,4-pyrimidinediamine]
> 7.00 | C[C@@H]1COCCN1c1ccc(Nc2ncc(F)c(Nc3ccc4c(n3)NC(=O)CO4)n2)cn1 [Compound 51, N4-(3,4-dihydro-3-oxo-2H-pyrido[3,2-b][1,4]oxazin-6-yl)-5-fluoro-N2-[6-((3R)-3-methylmorpholino)pyridin-3-yl]-2,4-pyrimidinediamine]
6.30 to 7.00 | C[C@@H]1CN(c2ccc(Nc3ncc(F)c(Nc4ccc5c(n4)NC(=O)C(C)(C)O5)n3)cn2)CCO1 [Compound 7, N4-(2,2-dimethyl-3,4-dihydro-3-oxo-2H-pyrido[3,2-b][1,4]oxazin-6-yl)-5-fluoro-N2-1-2,4-pyrimidinediamine]
4.00 to 6.00 | CC1(C)Oc2ccc(Nc3nc(Nc4ccc(C5CCOCC5)cc4)ncc3F)nc2NC1=O [Compound 47, N4-(2,2-dimethyl-3,4-dihydro-3-oxo-2H-pyrido[3,2-b][1,4]oxazin-6-yl)-5-fluoro-N2-[4-tetrahydropyranophenyl]-2,4-pyrimidinediamine]
6.30 to 7.00 | CN(C)C[C@@H]1CN(c2ccc(Nc3ncc(F)c(Nc4ccc5c(n4)NC(=O)C(C)(C)O5)n3)cc2)CCO1 [Compound 122]
6.30 to 7.00 | O=C1COc2ccc(Nc3nc(Nc4ccc(N5CCOCC5=O)cc4)ncc3F)nc2N1 [Compound 39]
6.30 to 7.00 | CCOCC1COCCN1c1ccc(Nc2ncc(F)c(Nc3ccc4c(n3)NC(=O)C(C)(C)O4)n2)cn1 (stereo not shown) [Compound 59, N4-(2,2-dimethyl-3,4-dihydro-3-oxo-2H-pyrido[3,2-b][1,4]oxazin-6-yl)-5-fluoro-N2-[6-(3-(ethoxymethyl)morpholino)pyridin-3-yl]-2,4-pyrimidinediamine]
6.30 to 7.00 | CC1(C)Oc2ccc(Nc3nc(Nc4ccc(N5CCC(N6CCOCC6)CC5)cc4)ncc3F)nc2NC1=O [Compound 87, N4-(2,2-dimethyl-3,4-dihydro-3-oxo-2H-pyrido[3,2-b][1,4]oxazin-6-yl)-5-fluoro-N2-[4-(4-morpholinopiperidin-1-yl)phenyl]-2,4-pyrimidinediamine]

Reference: patent US8618095B2 (Rigel Pharmaceuticals, Inc., priority 2010, dated 2013)
